Format in all cases: biochemical
Experiment [1] has as its target T1, Tek (Homo sapiens, UniProt Q02763).
T1 construct: amino acids 773-1124 of the cytoplasmic kinase domain of human Tek, N-terminally fused to GST; made in house; host or cells: Sf9 insect cells (baculovirus)
Briefly: Recombinant GST-Tek (Tie-2) tyrosine kinase assay (33P into poly(Glu,Tyr)). Particulars: Examples 1 to 169. The essentials: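 GST-fused human Tek kinase domain (aa 773-1124), baculovirus-expressed, 150 ng per reaction; 10 μg/mL poly(Glu,Tyr) 4:1, 4.0 μM [γ-33P]ATP, 3 mM MnCl2/3 mM MgCl2, pH 7.5, 30 min at ambient temperature. 33P uptake read on PVDF filters; IC50 by linear regression from four concentrations in duplicate.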

Experiment [2] addresses T2, KDR (Homo sapiens, UniProt P35968).
T2 construct: expressed in transfected cells; host or cells: CHO cells
Briefly: Inhibitory activity against KDR (VEGF-R2), in vitro data of Examples 170 and 207. Particulars: 10 μM; Examples 1 to 169; read-out: KDR inhibition at 10 μM. The essentials:
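KDR tyrosine phosphorylation detected by luminescence after overnight 4° C capture of 20 μg lysate protein with PY20:AP antibody. Lysates came from cells given compound for 2 h at 37° C, then final 20 ng/ml VEGF for 5 min; compound-free medium as control.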

Experiment [3] deals with T3, FGFR3 (K650E) (Homo sapiens, UniProt P22607, K650E).
T3 construct: amino acids 411-806 of the cytoplasmic domain of human FGFR-3, N-terminally fused to GST; made in house; host or cells: Sf9 insect cells (baculovirus)
Briefly: Recombinant GST-FGFR-3-K650E tyrosine kinase assay (33P into poly(Glu,Tyr)). Particulars: 10 μM; Examples 1 to 169; read-out: FGFR3 (K650E) inhibition at 10 μM.

The record followed here is patent US8552002B2 (Novartis AG, priority 2004, dated 2013).

T3 sequence (P22607 411-806 K650E): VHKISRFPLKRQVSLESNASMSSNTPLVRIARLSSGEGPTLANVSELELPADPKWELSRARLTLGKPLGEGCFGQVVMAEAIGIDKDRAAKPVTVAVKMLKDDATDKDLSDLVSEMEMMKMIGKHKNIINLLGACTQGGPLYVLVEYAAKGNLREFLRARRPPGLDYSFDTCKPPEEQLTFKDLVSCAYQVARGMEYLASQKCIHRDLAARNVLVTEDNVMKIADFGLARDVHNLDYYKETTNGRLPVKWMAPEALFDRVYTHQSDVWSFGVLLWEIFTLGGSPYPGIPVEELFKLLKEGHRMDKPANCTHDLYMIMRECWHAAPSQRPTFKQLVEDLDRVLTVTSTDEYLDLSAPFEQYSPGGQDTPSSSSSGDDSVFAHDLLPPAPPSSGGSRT
T2 sequence (P35968 20-1356): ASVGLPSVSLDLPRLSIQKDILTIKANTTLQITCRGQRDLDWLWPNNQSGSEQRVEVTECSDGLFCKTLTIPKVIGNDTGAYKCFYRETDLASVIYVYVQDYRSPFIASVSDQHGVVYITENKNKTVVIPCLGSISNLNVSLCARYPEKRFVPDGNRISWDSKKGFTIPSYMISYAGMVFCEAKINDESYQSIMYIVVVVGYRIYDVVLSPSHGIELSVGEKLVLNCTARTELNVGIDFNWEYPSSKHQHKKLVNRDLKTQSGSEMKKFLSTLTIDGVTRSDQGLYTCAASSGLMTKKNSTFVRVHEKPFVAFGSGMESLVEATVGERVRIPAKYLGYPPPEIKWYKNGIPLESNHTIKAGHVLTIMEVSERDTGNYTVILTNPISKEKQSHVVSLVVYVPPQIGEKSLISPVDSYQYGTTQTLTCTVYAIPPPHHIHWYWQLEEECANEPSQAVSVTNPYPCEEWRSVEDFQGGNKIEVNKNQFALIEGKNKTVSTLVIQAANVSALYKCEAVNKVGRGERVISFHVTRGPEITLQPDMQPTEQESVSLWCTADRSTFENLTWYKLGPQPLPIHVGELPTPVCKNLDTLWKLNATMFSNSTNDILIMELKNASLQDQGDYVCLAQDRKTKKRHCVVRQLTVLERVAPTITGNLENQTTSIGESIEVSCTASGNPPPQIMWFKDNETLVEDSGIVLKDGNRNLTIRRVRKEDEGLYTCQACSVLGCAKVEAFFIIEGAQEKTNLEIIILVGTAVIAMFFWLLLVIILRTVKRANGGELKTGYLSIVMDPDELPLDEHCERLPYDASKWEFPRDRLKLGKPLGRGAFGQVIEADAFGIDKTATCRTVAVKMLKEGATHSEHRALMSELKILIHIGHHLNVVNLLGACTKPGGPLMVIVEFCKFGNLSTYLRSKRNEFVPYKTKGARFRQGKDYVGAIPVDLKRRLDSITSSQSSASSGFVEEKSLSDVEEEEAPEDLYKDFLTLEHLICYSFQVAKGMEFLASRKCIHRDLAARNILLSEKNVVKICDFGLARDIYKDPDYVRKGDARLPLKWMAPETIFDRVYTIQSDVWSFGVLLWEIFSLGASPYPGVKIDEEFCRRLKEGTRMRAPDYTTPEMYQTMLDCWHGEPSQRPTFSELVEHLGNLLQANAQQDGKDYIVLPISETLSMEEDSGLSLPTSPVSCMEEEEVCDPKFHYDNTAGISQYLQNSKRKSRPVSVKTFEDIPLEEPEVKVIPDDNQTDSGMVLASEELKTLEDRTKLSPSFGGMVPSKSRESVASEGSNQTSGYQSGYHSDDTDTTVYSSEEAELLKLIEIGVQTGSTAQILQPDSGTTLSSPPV
T1 sequence (Q02763 773-1124): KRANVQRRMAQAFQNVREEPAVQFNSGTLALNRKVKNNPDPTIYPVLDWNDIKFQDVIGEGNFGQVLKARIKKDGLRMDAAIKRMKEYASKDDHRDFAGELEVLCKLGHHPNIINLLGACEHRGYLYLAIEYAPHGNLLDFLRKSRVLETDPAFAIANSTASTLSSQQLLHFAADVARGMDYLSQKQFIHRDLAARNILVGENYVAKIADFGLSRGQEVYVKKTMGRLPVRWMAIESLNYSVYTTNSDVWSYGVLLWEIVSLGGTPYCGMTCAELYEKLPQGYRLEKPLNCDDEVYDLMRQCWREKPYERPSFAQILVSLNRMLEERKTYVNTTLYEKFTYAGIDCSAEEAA

For `CN1CCN(c2ccc(Nc3cc(NC(=O)Nc4ccccc4Cl)ncn3)cc2)CC1` [Example 93, 1-(2-Chloro-phenyl)-3-{6-[4-(4-methyl-piperazin-1-yl)-phenylamino]-pyrimidin-4-yl}-urea], the inhibition at 10 µM lay in the range of 12 to 100% in experiment [1], 67 to 100% in experiment [2] and 27 to 100% in experiment [3].

For the molecule `CN1CCN(c2ccc(Nc3cc(NC(=O)Nc4ccccc4Br)ncn3)cc2)CC1` [Example 94, 1-(2-Bromo-phenyl)-3-{6-[4-(4-methyl-piperazin-1-yl)-phenylamino]-pyrimidin-4-yl}-urea], the inhibition at 10 µM in experiment [1] lay in the range of 12 to 100%; in experiment [2], 67 to 100%; in experiment [3] it was 27 to 100%.

In the case of `CCN(CC)CCCOc1ccc(N(C(=O)Nc2ccccc2Cl)c2cc(N)ncn2)cc1` [Example 95, 1-(6-Amino-pyrimidin-4-yl}-3-(2-chloro-phenyl)-1-[4-(3-diethylamino-propoxy)-phenyl]-urea], the inhibition at 10 µM in experiment [1] lay in the range of 12 to 100%; in experiment [2] it was 67 to 100%; in experiment [3], 27 to 100%.

Take `O=C(Nc1cc(Nc2ccc(OCCN3CCOCC3)cc2)ncn1)Nc1c(Cl)cccc1Cl` [Example 96, 1-(2,6-Dichloro-phenyl)-3-{6-[4-(2-morpholin-4-yl-ethoxy)-phenylamino]-pyrimidin-4-yl}-urea]: the figures for the inhibition at 10 µM in experiment [1], in experiment [2] and in experiment [3] were 12 to 100%, 67 to 100% and 27 to 100%, respectively.

Consider `O=C(Nc1cc(Nc2ccc(OCCN3CCOCC3)cc2)ncn1)Nc1ccccc1Br` [Example 97, 1-(2-Bromo-phenyl)-3-{6-[4-(2-morpholin-4-yl-ethoxy)-phenylamino]-pyrimidin-4-yl}-urea], for which the inhibition at 10 µM in experiment [1] was in the range of 12 to 100%; in experiment [2], 67 to 100%; in experiment [3], 27 to 100%.

Consider `O=C(Nc1cc(Nc2ccc(OCCCN3CCOCC3)cc2)ncn1)Nc1c(Cl)cccc1Cl` [Example 98, 1-(2,6-Dichloro-phenyl)-3-{6-[4-(3-morpholin-4-yl-propoxy)-phenylamino]-pyrimidin-4-yl}-urea], for which the inhibition at 10 µM in experiment [1] lay in the range of 12 to 100%; in experiment [2], 67 to 100%; in experiment [3], 27 to 100%.

`O=C(Nc1cc(Nc2ccc(OCCCN3CCOCC3)cc2)ncn1)Nc1ccccc1Br` [Example 99, 1-(2-Bromo-phenyl)-3-{6-[4-(3-morpholin-4-yl-propoxy)-phenylamino]-pyrimidin-4-yl}-urea]: the values for the inhibition at 10 µM in experiment [1], in experiment [2] and in experiment [3] were 12 to 100%, 67 to 100% and 27 to 100%, respectively.

For the molecule `CCN(CC)CCOc1ccc(Nc2cc(NC(=O)Nc3c(Cl)cccc3Cl)ncn2)cc1` [Example 100, 1-(2,6-Dichloro-Phenyl)-3-{6-[4-(2-diethylamino-ethoxy)-phenylamino]-pyrimidin-4-yl}-urea], the values for the inhibition at 10 µM in experiment [1], in experiment [2] and in experiment [3] were 12 to 100%, 67 to 100% and 27 to 100%, respectively.

For the molecule `CCN(CC)CCOc1ccc(Nc2cc(NC(=O)Nc3ccccc3Br)ncn2)cc1` [Example 101, 1-(2-Bromo-phenyl)-3-{6-[4-(2-diethylamino-ethoxy)-phenylamino]-pyrimidin-4-yl}-urea], the inhibition at 10 µM in experiment [1] is 12 to 100%; in experiment [2], 67 to 100%; in experiment [3], 27 to 100%.

Consider `CCN(CC)CCCOc1ccc(Nc2cc(NC(=O)Nc3ccccc3Cl)ncn2)cc1` [Example 102, 1-(2-Chloro-phenyl)-3-{6-[4-(3-diethylamino-propoxy)-phenylamino]-pyrimidin-4-yl}-urea], for which the inhibition at 10 µM in experiment [1] is 12 to 100%; in experiment [2], 67 to 100%; in experiment [3], 27 to 100%.

As for `CCN(CC)CCCOc1ccc(Nc2cc(NC(=O)Nc3c(Cl)cccc3Cl)ncn2)cc1` [Example 103, 1-(2,6-Dichloro-phenyl)-3-{6-[4-(3-diethylamino-propoxy)-phenylamino]-pyrimidin-4-yl}-urea], the figures for the inhibition at 10 µM in experiment [1], in experiment [2] and in experiment [3] were 12 to 100%, 67 to 100% and 27 to 100%, respectively.

For the molecule `CCN(CC)CCCOc1ccc(Nc2cc(NC(=O)Nc3ccccc3Br)ncn2)cc1` [Example 104, 1-(2-Bromo-phenyl)-3-{6-[4-(3-diethylamino-propoxy)-phenylamino]-pyrimidin-4-yl}-urea], the inhibition at 10 µM was in the range of 12 to 100% in experiment [1], 67 to 100% in experiment [2] and 27 to 100% in experiment [3].

For `CCN(CC)c1ccc(Nc2cc(NC(=O)Nc3c(F)cccc3F)ncn2)cc1` [Example 105, 1-[6-(4-Diethylamino-phenylamino)-pyrimidin-4-yl]-3-(2,6-difluoro-phenyl)-urea], the inhibition at 10 µM in experiment [1] lay within 12 to 100%; in experiment [2], 67 to 100%; in experiment [3], 27 to 100%.

`CN(C)c1cccc(Nc2cc(NC(=O)Nc3c(F)cccc3F)ncn2)c1` [Example 106, 1-(2,6-Difluoro-phenyl)-3-[6-(3-dimethylamino-phenylamino)-pyrimidin-4-yl]-urea]: the results for the inhibition at 10 µM in experiment [1], in experiment [2] and in experiment [3] were 12 to 100%, 67 to 100% and 27 to 100%, respectively.

Turning to `CCN(CC)c1ccc(Nc2cc(NC(=O)Nc3c(Cl)cccc3Cl)ncn2)cc1` [Example 107, 1-(2,6-Dichloro-phenyl)-3-[6-(4-diethylamino-phenylamino)-pyrimidin-4-yl]-urea], the inhibition at 10 µM in experiment [1] lay in the range of 12 to 100%; in experiment [2] it was 67 to 100%; in experiment [3], 27 to 100%.

Take `O=C(Nc1cc(Nc2ccc(N3CCOCC3)cc2)ncn1)Nc1c(Cl)cccc1Cl` [Example 108, 1-(2,6-Dichloro-Phenyl)-3-[6-(4-morpholin-4-yl-phenylamino)-pyrimidin-4-yl]-urea]: the inhibition at 10 µM lay within 12 to 100% in experiment [1], 67 to 100% in experiment [2] and 27 to 100% in experiment [3].

For the molecule `O=C(Nc1cc(Nc2ccc(N3CCOCC3)cc2)ncn1)Nc1c(F)cccc1F` [Example 109, 1-(2,6-Difluoro-phenyl)-3-[6-(4-morpholin-4-yl-phenylamino)-pyrimidin-4-yl]-urea], the values for the inhibition at 10 µM in experiment [1], in experiment [2] and in experiment [3] were 12 to 100%, 67 to 100% and 27 to 100%, respectively.

Regarding `CCN(CC)c1ccc(Nc2cc(N(C)C(=O)Nc3c(Cl)cccc3Cl)ncn2)cc1` [Example 110, 3-(2,6-Dichloro-phenyl)-1-[6-(4-diethylamino-phenylamino)-pyrimidin-4-yl]-1-methyl-urea], the values for the inhibition at 10 µM in experiment [1], in experiment [2] and in experiment [3] were 12 to 100%, 67 to 100% and 27 to 100%, respectively.

With `CN(C(=O)Nc1c(Cl)cccc1Cl)c1cc(Nc2ccc(C(C)(C)O)cc2)ncn1` [Example 111, 3-(2,6-Dichloro-Phenyl)-1-{6-[4-(1-hydroxy-1-methyl-ethyl)-phenylamino]-pyrimidin-4-yl}-1-methyl-urea], the inhibition at 10 µM in experiment [1] lay within 12 to 100%; in experiment [2] it was 67 to 100%; in experiment [3], 27 to 100%.

For `COc1ccc(Nc2cc(NC(=O)Nc3c(Cl)cccc3Cl)ncn2)cn1` [Example 112, 1-(2,6-Dichloro-phenyl)-3-[6-(6-methoxy-pyridin-3-ylamino)-pyrimidin-4-yl]-urea], the inhibition at 10 µM was 12 to 100% in experiment [1], 67 to 100% in experiment [2] and 27 to 100% in experiment [3].

On to `CN(C(=O)Nc1c(Cl)cccc1Cl)c1cc(Nc2cccc(C(F)(F)F)c2)ncn1` [Example 113, 3-(2,6-Dichloro-phenyl)-1-methyl-1-[6-(3-trifluoromethyl-phenylamino)-pyrimidin-4-yl]-urea], for which the values for the inhibition at 10 µM in experiment [1], in experiment [2] and in experiment [3] were 12 to 100%, 67 to 100% and 27 to 100%, respectively.

`CN(C(=O)Nc1c(Cl)cccc1Cl)c1cc(Nc2cccc(C#N)c2)ncn1` [Example 114, 1-[6-(3-Cyano-phenylamino)-pyrimidin-4-yl]-3-(2,6-dichloro-phenyl)-1-methyl-urea]: the results for the inhibition at 10 µM in experiment [1], in experiment [2] and in experiment [3] were 12 to 100%, 67 to 100% and 27 to 100%, respectively.

Consider `O=C(Nc1cc(Nc2ccc(F)cc2)ncn1)Nc1c(Cl)cccc1Cl` [Example 115, 1-(2,6-Dichloro-phenyl)-3-[6-(4-fluoro-phenylamino)-pyrimidin-4-yl]-urea], for which the inhibition at 10 µM in experiment [1] lay in the range of 12 to 100%; in experiment [2], 67 to 100%; in experiment [3], 27 to 100%.

Consider `COc1ccc(NC(=O)N(C)c2cc(Nc3ccc(F)cc3)ncn2)cc1` [Example 116, 1-[6-(4-Fluoro-Phenylamino)-pyrimidin-4-yl]-3-(4-methoxy-phenyl)-1-methyl-urea], for which the inhibition at 10 µM was in the range of 12 to 100% in experiment [1], 67 to 100% in experiment [2] and 27 to 100% in experiment [3].

As to `CN(C(=O)Nc1c(Cl)cccc1Cl)c1cc(Nc2ccc(N3CCOCC3)cc2)ncn1` [Example 117, 3-(2,6-Dichloro-phenyl)-1-methyl-1-[6-(4-morpholin-4-yl-phenylamino)-pyrimidin-4-yl]-urea], the values for the inhibition at 10 µM in experiment [1], in experiment [2] and in experiment [3] were 12 to 100%, 67 to 100% and 27 to 100%, respectively.

The inhibition is how much of the control response was suppressed.
